Starred links: 1 amine or outer side, 2 acyl side, 3 side chain; linkers in the order of their positions; H or OH if unused. Positions of bridges follow the written chain, without caps; N, C: chain ends. Non-standard residues stand in square brackets, D forms with d. Residues, ends and D or L forms follow the SMILES beside them. *: point of attachment. hPhe(3-Cl-4-CF3) = N[C@@H](CCc1ccc(C(F)(F)F)c(Cl)c1)C(=O)O; hPhe(3-F,4-CF3) = N[C@@H](CCc1ccc(C(F)(F)F)c(F)c1)C(=O)O; NMePhe(3-CF3) = CN[C@@H](Cc1cccc(C(F)(F)F)c1)C(=O)O; NMePhe(4-CF3) = CN[C@@H](Cc1ccc(C(F)(F)F)cc1)C(=O)O; NMePhe(2-CF3) = CN[C@@H](Cc1ccccc1C(F)(F)F)C(=O)O; NMePhe(3-Me) = CN[C@@H](Cc1cccc(C)c1)C(=O)O; NMePhe(4-Me) = CN[C@@H](Cc1ccc(C)cc1)C(=O)O; NMePhe(3-F) = CN[C@@H](Cc1cccc(F)c1)C(=O)O; NMePhe(2-Me) = CN[C@@H](Cc1ccccc1C)C(=O)O; NMedβ3hAla = C[C@H](CC(=O)[*:2])N(C)[*:1]; NMeGly(cPent) = CN[C@H](C(=O)O)C1CCCC1; NMeY = CN[C@@H](Cc1ccc(O)cc1)C(=O)O; NMeCha = CN[C@@H](CC1CCCCC1)C(=O)O; NMeD = CN[C@@H](CC(=O)O)C(=O)O; NMeL = CN[C@@H](CC(C)C)C(=O)O; NMeV = CN[C@H](C(=O)O)C(C)C; d(β3hA) = C[C@@H](N)CC(=O)O; NMeA = CN[C@@H](C)C(=O)O; Piperidide = C1CCN(*)CC1; Ac5c = NC1(C(=O)O)CCCC1; Aze = O=C(O)[C@@H]1CCN1; Ac4c = NC1(C(=O)O)CCC1; CF3 = FC(F)(F)*; Sar = CNCC(=O)O
Experiments:
[1] = system: Human pancreatic cancer cell line AsPC-1; assay: Measurement of AsPC-1 cell growth inhibition (AsPC-1 CGI); assay type: cell-based; conditions: 96 h
Procedure, shortened: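 AsPC-1 cells in 15% FBS RPMI-1640 were exposed to test compound for 96 hours at 37° C, with CellTiter-Glo as endpoint.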

[2] = target: T1, Kras and SOS1 (biotin-tagged human Kras loaded with GDP, His-tagged human SOS1) (Homo sapiens, UniProt P01116, G12D); assay: Protein-protein interaction inhibition between Kras and SOS1 (KrasGl2D-SOS PPI) using AlphaScreen; assay type: binding; conditions: AlphaScreen; biotin-tagged human Kras loaded with GDP, His-tagged human SOS1; read-out: KRAS G12D-SOS PPI IC50
T1 construct: made in house; host or cells: E. coli (stated for Kras only)
T1 sequence (P01116 1-188 isoform P01116-2 G12D): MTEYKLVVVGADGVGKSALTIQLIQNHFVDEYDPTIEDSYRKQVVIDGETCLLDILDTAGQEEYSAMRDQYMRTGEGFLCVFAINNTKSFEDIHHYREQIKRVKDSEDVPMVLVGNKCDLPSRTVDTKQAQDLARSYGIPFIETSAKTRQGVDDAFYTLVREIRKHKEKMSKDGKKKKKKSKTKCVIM
Procedure, shortened: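 Energy transfer from nickel-chelate donor beads bound to His-SOS1 to streptavidin acceptor beads bound to biotin-Kras, expressed in E. coli and loaded with GDP after purification, was monitored. Donors were excited at 680 nm; singlet oxygen reaching acceptors gave emission read at 520-620 nm.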

Structure (SMILES) | IC50 [1] [nM] | IC50 [2] [nM]
CC[C@H](C)[C@@H]1NC(=O)[C@H](C)N(C)C(=O)C[C@@H](C)NC(=O)[C@H](C2CCCC2)N(C)C(=O)C2(CCC2)NC(=O)[C@@H]2CCCN2C(=O)[C@H](CCc2ccc(C(F)(F)F)c(Cl)c2)NC(=O)CN(C)C(=O)[C@H](Cc2ccc(C)cc2)N(C)C(=O)CN(C)C(=O)CN(C)C1=O [Compound 1466] (cyclo([Ac4c][NMeGly(cPent)][d(β3hA)][NMeA]I[Sar][Sar][NMePhe(4-Me)][Sar][hPhe(3-Cl-4-CF3)]P)) | 100 to 500 | 1
CC[C@H](C)[C@@H]1NC(=O)[C@H](CC(C)C)N(C)C(=O)C[C@@H](C)NC(=O)[C@H](C2CCCC2)N(C)C(=O)C2(CCC2)NC(=O)[C@@H]2CCCN2C(=O)[C@H](CCc2ccc(C(F)(F)F)c(Cl)c2)NC(=O)CN(C)C(=O)[C@H](Cc2ccc(C)cc2)N(C)C(=O)CN(C)C(=O)CN(C)C1=O [Compound 1498] (cyclo([Ac4c][NMeGly(cPent)][d(β3hA)][NMeL]I[Sar][Sar][NMePhe(4-Me)][Sar][hPhe(3-Cl-4-CF3)]P)) | 100 to 500 | 1.7
CC[C@H](C)[C@@H]1NC(=O)[C@H](CC(C)C)N(C)C(=O)C[C@@H](C)NC(=O)[C@H](C2CCCC2)N(C)C(=O)C2(CCCC2)NC(=O)[C@@H]2CCCN2C(=O)[C@H](CCc2ccc(C(F)(F)F)c(Cl)c2)NC(=O)CN(C)C(=O)[C@H](Cc2ccc(C)cc2)N(C)C(=O)[C@@H]2CCN2C(=O)CN(C)C1=O [Compound 1500] (cyclo([Ac5c][NMeGly(cPent)][d(β3hA)][NMeL]I[Sar][Aze][NMePhe(4-Me)][Sar][hPhe(3-Cl-4-CF3)]P)) | 100 to 500 | 3.9
CC[C@H](C)[C@@H]1NC(=O)[C@H](CC(C)C)N(C)C(=O)C[C@@H](C(=O)N2CCCCC2)N(C)C(=O)[C@H](CC(C)C)N(C)C(=O)C2(CCCC2)NC(=O)[C@@H]2CCCN2C(=O)[C@H](CCc2ccc(C(F)(F)F)c(F)c2)NC(=O)CN(C)C(=O)[C@H](CC2CCCCC2)N(C)C(=O)CN(C)C(=O)CN(C)C1=O [Compound 1501] ([NMeL]I[Sar][Sar][NMeCha][Sar][hPhe(3-F,4-CF3)]P[Ac5c][NMeL][NMeD]-Piperidide; lactam N-11) | 100 to 500 | 14
CC[C@H](C)[C@@H]1NC(=O)[C@H](CC(C)C)N(C)C(=O)C[C@@H](C)NC(=O)[C@H](C2CCCC2)N(C)C(=O)C2(CCC2)NC(=O)[C@@H]2CCCN2C(=O)[C@H](CCc2ccc(C(F)(F)F)c(Cl)c2)NC(=O)CN(C)C(=O)[C@H](Cc2ccc(C(F)(F)F)cc2)N(C)C(=O)CN(C)C(=O)CN(C)C1=O [Compound 1508] (cyclo([Ac4c][NMeGly(cPent)][d(β3hA)][NMeL]I[Sar][Sar][NMePhe(4-CF3)][Sar][hPhe(3-Cl-4-CF3)]P)) | 100 to 500 | 1.3
CC[C@H](C)[C@@H]1NC(=O)[C@H](C)N(C)C(=O)C[C@@H](C)NC(=O)[C@H](C2CCCC2)N(C)C(=O)C2(CCCC2)NC(=O)[C@@H]2CCCN2C(=O)[C@H](CCc2ccc(C(F)(F)F)c(Cl)c2)NC(=O)CN(C)C(=O)[C@H](Cc2ccc(C(F)(F)F)cc2)N(C)C(=O)CN(C)C(=O)CN(C)C1=O [Compound 1523] (cyclo([Ac5c][NMeGly(cPent)][d(β3hA)][NMeA]I[Sar][Sar][NMePhe(4-CF3)][Sar][hPhe(3-Cl-4-CF3)]P)) | 100 to 500 | 0.75
CC[C@H](C)[C@@H]1NC(=O)[C@H](CC(C)C)N(C)C(=O)C[C@@H](C)NC(=O)[C@H](C2CCCC2)N(C)C(=O)C2(CCCC2)NC(=O)[C@@H]2CCCN2C(=O)[C@H](CCc2ccc(C(F)(F)F)c(Cl)c2)NC(=O)CN(C)C(=O)[C@H](Cc2ccc(C(F)(F)F)cc2)N(C)C(=O)CN(C)C(=O)CN(C)C1=O [Compound 1524] (cyclo([Ac5c][NMeGly(cPent)][d(β3hA)][NMeL]I[Sar][Sar][NMePhe(4-CF3)][Sar][hPhe(3-Cl-4-CF3)]P)) | 50 to 100 | 1.9
CC[C@H](C)[C@@H]1NC(=O)[C@H](CC(C)C)N(C)C(=O)C[C@@H](C)NC(=O)[C@H](C2CCCC2)N(C)C(=O)C2(CCCC2)NC(=O)[C@@H]2CCCN2C(=O)[C@H](CCc2ccc(C(F)(F)F)c(Cl)c2)NC(=O)CN(C)C(=O)[C@H](Cc2ccc(C)cc2)N(C)C(=O)[C@@H]2CCN2C(=O)[C@H](C)N(C)C1=O [Compound 1537] (cyclo([Ac5c][NMeGly(cPent)][d(β3hA)][NMeL]I[NMeA][Aze][NMePhe(4-Me)][Sar][hPhe(3-Cl-4-CF3)]P)) | 50 to 100 | 3.9
CC[C@H](C)[C@@H]1NC(=O)[C@H](CC(C)C)N(C)C(=O)C[C@@H](C)NC(=O)[C@H](C2CCCC2)N(C)C(=O)C2(CCC2)NC(=O)[C@@H]2CCCN2C(=O)[C@H](CCc2ccc(C(F)(F)F)c(Cl)c2)NC(=O)CN(C)C(=O)[C@H](CC2CCCCC2)N(C)C(=O)CN(C)C(=O)CN(C)C1=O [Compound 1544] (cyclo([Ac4c][NMeGly(cPent)][d(β3hA)][NMeL]I[Sar][Sar][NMeCha][Sar][hPhe(3-Cl-4-CF3)]P)) | 100 to 500 | 5.6
CC[C@H](C)[C@@H]1NC(=O)[C@H](CC(C)C)N(C)C(=O)C[C@@H](C)N(C)C(=O)[C@H](C(C)C)N(C)C(=O)C2(CCCC2)NC(=O)[C@@H]2CCCN2C(=O)[C@H](CCc2ccc(C(F)(F)F)c(Cl)c2)NC(=O)CN(C)C(=O)[C@H](Cc2ccc(C)cc2)N(C)C(=O)CN(C)C(=O)CN(C)C1=O [Compound 1549] (cyclo([Ac5c][NMeV][NMedβ3hAla][NMeL]I[Sar][Sar][NMePhe(4-Me)][Sar][hPhe(3-Cl-4-CF3)]P)) | 50 to 100 | 3.6
CC[C@H](C)[C@@H]1NC(=O)[C@H](CC(C)C)N(C)C(=O)C[C@@H](C)N(C)C(=O)[C@H](C(C)C)N(C)C(=O)C2(CCCC2)NC(=O)[C@@H]2CCCN2C(=O)[C@H](CCc2ccc(C(F)(F)F)c(Cl)c2)NC(=O)CN(C)C(=O)[C@H](Cc2ccccc2C)N(C)C(=O)CN(C)C(=O)CN(C)C1=O [Compound 1550] (cyclo([Ac5c][NMeV][NMedβ3hAla][NMeL]I[Sar][Sar][NMePhe(2-Me)][Sar][hPhe(3-Cl-4-CF3)]P)) | 50 to 100 | 19
CC[C@H](C)[C@@H]1NC(=O)[C@H](CC(C)C)N(C)C(=O)C[C@@H](C)N(C)C(=O)[C@H](C(C)C)N(C)C(=O)C2(CCCC2)NC(=O)[C@@H]2CCCN2C(=O)[C@H](CCc2ccc(C(F)(F)F)c(Cl)c2)NC(=O)CN(C)C(=O)[C@H](Cc2ccc(OC)cc2)N(C)C(=O)CN(C)C(=O)CN(C)C1=O [Compound 1551] (cyclo([Ac5c][NMeV][NMedβ3hAla][NMeL]I[Sar][Sar][NMeY](Me)[Sar][hPhe(3-Cl-4-CF3)]P)) | 50 to 100 | 4.9
CC[C@H](C)[C@@H]1NC(=O)[C@H](CC(C)C)N(C)C(=O)C[C@@H](C(=O)N2CCCCC2)N(C)C(=O)[C@H](C(C)C)N(C)C(=O)C2(CCCC2)NC(=O)[C@@H]2CCCN2C(=O)[C@H](CCc2ccc(C(F)(F)F)c(Cl)c2)NC(=O)CN(C)C(=O)[C@H](Cc2cccc(C(F)(F)F)c2)N(C)C(=O)CN(C)C(=O)CN(C)C1=O [Compound 1555] ([NMeL]I[Sar][Sar][NMePhe(3-CF3)][Sar][hPhe(3-Cl-4-CF3)]P[Ac5c][NMeV][NMeD]-Piperidide; lactam N-11) | 100 to 500 | 6.1
CC[C@H](C)[C@@H]1NC(=O)[C@H](CC(C)C)N(C)C(=O)C[C@@H](C(=O)N2CCCCC2)N(C)C(=O)[C@H](C(C)C)N(C)C(=O)C2(CCCC2)NC(=O)[C@@H]2CCCN2C(=O)[C@H](CCc2ccc(C(F)(F)F)c(Cl)c2)NC(=O)CN(C)C(=O)[C@H](Cc2cccc(F)c2)N(C)C(=O)CN(C)C(=O)CN(C)C1=O [Compound 1557] ([NMeL]I[Sar][Sar][NMePhe(3-F)][Sar][hPhe(3-Cl-4-CF3)]P[Ac5c][NMeV][NMeD]-Piperidide; lactam N-11) | 100 to 500 | 5.7
CC[C@H](C)[C@@H]1NC(=O)[C@H](CC(C)C)N(C)C(=O)C[C@@H](C)N(C)C(=O)[C@H](C(C)C)N(C)C(=O)C2(CCCC2)NC(=O)[C@@H]2CCCN2C(=O)[C@H](CCc2ccc(C(F)(F)F)c(Cl)c2)NC(=O)CN(C)C(=O)[C@H](Cc2ccc(OC(F)(F)F)cc2)N(C)C(=O)CN(C)C(=O)CN(C)C1=O [Compound 1563] (cyclo([Ac5c][NMeV][NMedβ3hAla][NMeL]I[Sar][Sar][NMeY](CF3)[Sar][hPhe(3-Cl-4-CF3)]P)) | 50 to 100 | 6.2
CC[C@H](C)[C@@H]1NC(=O)[C@H](CC(C)C)N(C)C(=O)C[C@@H](C)NC(=O)[C@H](C(C)C)N(C)C(=O)C2(CCCC2)NC(=O)[C@@H]2CCCN2C(=O)[C@H](CCc2ccc(C(F)(F)F)c(Cl)c2)NC(=O)CN(C)C(=O)[C@H](Cc2ccc(OC(F)(F)F)cc2)N(C)C(=O)CN(C)C(=O)CN(C)C1=O [Compound 1565] (cyclo([Ac5c][NMeV][d(β3hA)][NMeL]I[Sar][Sar][NMeY](CF3)[Sar][hPhe(3-Cl-4-CF3)]P)) | 100 to 500 | 14
CC[C@H](C)[C@@H]1NC(=O)[C@H](CC(C)C)N(C)C(=O)C[C@@H](C)N(C)C(=O)[C@H](C(C)C)N(C)C(=O)C2(CCCC2)NC(=O)[C@@H]2CCCN2C(=O)[C@H](CCc2ccc(C(F)(F)F)c(Cl)c2)NC(=O)CN(C)C(=O)[C@H](Cc2ccccc2C(F)(F)F)N(C)C(=O)CN(C)C(=O)CN(C)C1=O [Compound 1567] (cyclo([Ac5c][NMeV][NMedβ3hAla][NMeL]I[Sar][Sar][NMePhe(2-CF3)][Sar][hPhe(3-Cl-4-CF3)]P)) | 100 to 500 | 33
CC[C@H](C)[C@@H]1NC(=O)[C@H](CC(C)C)N(C)C(=O)C[C@@H](C)N(C)C(=O)[C@H](C(C)C)N(C)C(=O)C2(CCCC2)NC(=O)[C@@H]2CCCN2C(=O)[C@H](CCc2ccc(C(F)(F)F)c(Cl)c2)NC(=O)CN(C)C(=O)[C@H](Cc2cccc(C)c2)N(C)C(=O)CN(C)C(=O)CN(C)C1=O [Compound 1570] (cyclo([Ac5c][NMeV][NMedβ3hAla][NMeL]I[Sar][Sar][NMePhe(3-Me)][Sar][hPhe(3-Cl-4-CF3)]P)) | 50 to 100 | 4.3
